# From patent US9505798B2, “Steroid compounds as RORyt modulators and uses thereof” (New York University, priority 2010, dated 2016)
# Read-outs that look alike come from different tables or passages of the source.
# Columns and labels:
# [1] = target: T1, mouse RORγt (Mus musculus, UniProt P51450); assay: Drosophila S2 cell RORγt luciferase reporter; assay type: cell-based; conditions: for effect on RORγ transcriptional activity: S2 reporter system
# T1 construct: mouse RORγt (amino acids 79 to the carboxyl terminal end); expressed in transfected cells
# T1 sequence (P51450 79-495 isoform P51450-2): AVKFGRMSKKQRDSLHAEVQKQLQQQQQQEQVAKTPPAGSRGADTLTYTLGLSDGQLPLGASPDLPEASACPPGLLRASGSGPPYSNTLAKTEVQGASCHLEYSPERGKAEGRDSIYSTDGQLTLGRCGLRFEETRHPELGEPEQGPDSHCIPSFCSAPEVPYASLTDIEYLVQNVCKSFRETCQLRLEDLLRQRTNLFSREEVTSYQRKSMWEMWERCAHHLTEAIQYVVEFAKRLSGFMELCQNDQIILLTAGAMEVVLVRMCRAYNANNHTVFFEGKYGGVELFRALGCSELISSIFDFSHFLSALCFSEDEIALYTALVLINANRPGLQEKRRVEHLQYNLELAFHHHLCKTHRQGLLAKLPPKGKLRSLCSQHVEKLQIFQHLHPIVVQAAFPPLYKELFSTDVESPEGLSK
# Description: The Drosophila S2 cell line was originally purchased from Invitrogen and was maintained in Schneider's medium supplemented with 10% heat-inactivated bovine fetal calf serum and antibiotics (Invitrogen). […] The resulting chimeric gene was subcloned into the copper inducible pMT/V5-His A vector (Invitrogen). […] Coding sequences for firefly luciferase (Promega) were PCR amplified and subcloned into pUAST vector containing Gal4 binding enhancer sequences. Renilla luciferase construct under the polIII promoter was obtained from Dr. Dasgupta's laboratory (NYU medical center). In order to generate stable cell lines, cells were co-transfected with pMT-G4 DBD-RORγt, pMT-G4 DBD-RORα, pMT-G4 DBD-DHR3, or pMT-G4 DBDVP16 and pHygro plasmids (Invitrogen) and screened for resistant colonies in the presence of hygromycin (0.3 mg/mL). […] Using similar methods, stable clones with genomic integration of the luciferase reporters and other reporters were generated such as pMT-RORα_luc, pMT-DHR3_Luc, or pMT-VP16_luc.
# (§1) The following representative compounds are tested for their RORγt inhibitory activity and toxicity.
# Promega Dual-Glo system is widely used for HTS as the luciferase substrates. Cell culture medium was reduced to the final volume of 10 μl or less and 10 μl of Dual-glo and 10 μl of Stop-glo luciferase substrates were added in a sequencial manner (Promega). Firefly and Renilla luciferase activity was determined by measuring luminescence signals using an automated 384-well plate reader equipped with multiple stack units (such as the Analyst GT or Envision plate readers).
# 10,000 Drosophila stable S2 cells with genomic integration of the Cu2+-inducible G4 DBD-mouse RORγ construct were transfected with 5 ng of pUASTfirefly luciferase and 7 ng of Pol III-Renilla luciferase and dispensed into white bottom-tissue culture 384-well plates (Corning). […] The following morning, Stop-glo luciferase substrates (Promega) were used to measure luciferase activity.
# The Drosophila S2 cell line was originally purchased from Invitrogen and was maintained in Schneider's Drosophila medium supplemented with 10% heat-inactivated bovine fetal calf serum and 1× antibiotic-antimycotic solution (Invitrogen). […] The resulting chimeric gene was subcloned into the copper inducible pMT/V5-His A vector (Invitrogen) and into the constitutive pAc vector. […] Coding sequences for firefly luciferase (Promega) were PCR amplified and subcloned into the pUAST vector containing five Gal4 binding enhancer sequences. The Renilla luciferase construct under a pol III promoter and the pAc vector were obtained from R. Dasgupta (NYU School of Medicine). To generate cell lines stably expressing various chimeric proteins upon copper addition, S2 cells were co-transfected with pMT plasmids encoding individual G4 DBD chimeric constructs and the pCoHygro plasmid (Invitrogen), before screening for resistant colonies in the presence of hygromycin (0.3 mg/mL). […] The human androgen receptor (hAR) expression plasmid pMK33-hAR and its reporter TAT3-Luc were obtained from M. Garabedian (NYU School of Medicine). […] R1881 (10 nM) and Dafachronic acid (10 μM) were used as ligands for hAR and Daf12. Upon treatment of cells with copper, in 384 well plates, there was specific increase in firefly luciferase activity versus normalized Renilla luciferase activity for all cell lines described above, validating the method for high-throughput screen.
# Transfections of firefly and Renilla reporter constructs were performed using the Effectene kit from Qiagen according to the manufacturer's protocol with some modifications.
# [2] = tested on: experimental autoimmune encephalomyelitis (EAE); assay: Active EAE (MOG35-55/CFA) in C57BL/6 mice; assay type: in vivo, mouse; conditions: IP daily from day 2
# [3] = target: T2, RORγt (Mus musculus, UniProt P51450); assay type: cell-based; conditions: mouse T cells
# T2 construct: expressed in transfected cells; host or cells: mouse naive CD4+ T cells, retroviral MIGr vector
# T2 sequence (P51450 other isoform, or with tags, fused parts or gaps): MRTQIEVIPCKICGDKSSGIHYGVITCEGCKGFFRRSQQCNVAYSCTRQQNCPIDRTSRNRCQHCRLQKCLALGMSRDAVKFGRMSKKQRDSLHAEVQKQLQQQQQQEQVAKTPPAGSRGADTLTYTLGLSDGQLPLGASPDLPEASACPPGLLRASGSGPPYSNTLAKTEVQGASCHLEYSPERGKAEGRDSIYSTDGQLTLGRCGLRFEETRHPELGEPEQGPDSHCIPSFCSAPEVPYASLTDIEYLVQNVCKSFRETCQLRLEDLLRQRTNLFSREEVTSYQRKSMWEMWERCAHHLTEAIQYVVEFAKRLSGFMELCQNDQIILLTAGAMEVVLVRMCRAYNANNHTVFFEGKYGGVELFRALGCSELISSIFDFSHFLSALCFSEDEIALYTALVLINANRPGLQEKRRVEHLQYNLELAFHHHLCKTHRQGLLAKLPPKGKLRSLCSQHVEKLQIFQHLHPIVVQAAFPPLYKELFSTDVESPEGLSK
# Protocol: Naive CD25^− CD62L^+CD44^low/int cells were sorted from RORγt^fl/fl mice and transduced with control-IRES-GFP (WT) or CRE-IRES-GFP (KO) retrovirus. […] FACS-sorted naive T cells were transduced with retroviral vectors encoding murine RORα-IRES-GFP or RORγt-IRES-GFP on Day 1 (16 h after TCR stimulation) and GFP expressing cells were gated for analysis on Day 5. […] Lymphocytes were isolated on day 21 after disease induction. The cells were stimulated for 4 h with PMA/Ionomycin and stained for surface markers and intracellular cytokines.
# T cells were purified from lymph nodes and spleens of six to eight weeks old B6 mice (Taconic), by magnetically depleting B220^+ cells (autoMACS, Miltenyi), and then sorting CD8^−DAPI^−CD19^−CD4^+CD25^−CD62L^+CD44^low/Int naive T cells on a FACSAria (BD). […] For T cell polarization, 200 μl cells were seeded at 0.4×10^5 cells per mL in 96-well plates pre-coated with anti-CD3ε (5 μg/mL) and anti-CD28 (10 μg/mL). Cells were cultured for 4-5 days in Th17 (TGF-β (0.3 ng/mL), IL-6 (20 ng/mL), and anti-IFN-γ and anti-IL-4 (2 ng/mL)), Th1 (IL-12 (10 ng/mL), IL-2 (10 U/mL) and anti-IL-4 (2 ng/mL)), or Th2 (IL-4 (10 ng/mL), and anti-P35 and anti-IFN-γ 2 ng/mL)) conditions. For ectopic expression ROR proteins, native CD4^+ T cells were infected with retroviral MIGr-control, MIGr-RORα or MIGr-RORγ 24 hrs after activation, and cultured without exogenous cytokines or only with IL-6. At day 1, compounds dissolved in DMSO were added. For cytokine analysis, cells were incubated for 5 hours with phorbol 12-myristate 13-acetate (50 ng/mL; Sigma), ionomycin (500 ng/mL; Sigma) and GolgiStop (BD). Intracellular cytokine staining was performed according to the manufacturer's protocol (Cytofix/Cytoperm buffer set from BD) with alexa647-conjugated anti-IL-17a (eBioscience), and PE-conjugated anti-IFN-γ or anti-IL-4 (eBioscience). An LSR II (BD Biosciences) and FlowJo software (Tree Star) were used for flow cytometry and analysis. Dead cells were excluded using the Live/Dead fixable aqua dead cell stain kit (Invitrogen).
# [4] = tested on: human embryonic kidney 293t cell lines; assay: Toxicity on human embryonic kidney 293T cells; conditions: human embryonic kidney 293t cell lines
# Protocol: as §1
compound,measurement,setting,value
COC(=O)C1CCC2(O)C3CCC4CC(OC5CC(O)C(OC6CC(O)C(OC7CC(O)C(O)C(C)O7)C(C)O6)C(C)O5)CCC4(C)C3CC(O)C12C (stereo not shown) [Compound 24],IC50,"[1]; S2 cell RORγt reporter, read-out: IC50",1 to 10 µM
"C[C@]12CC[C@H](O)C[C@H]1CC[C@@H]1[C@@H]2C[C@@H](O)[C@]2(C)[C@@H](C3=CC(=O)OC3)CC[C@]12O [digoxigenin, Digoxigenin]",EAE onset and severity of progression,[2],no effect
CC(=O)OC1C(C)O[C@@H](OC2C(C)O[C@H](OC3C(C)O[C@@H](O[C@H]4CC[C@@]5(C)[C@H](CC[C@@H]6[C@@H]5C[C@@H](OC(C)=O)[C@]5(C)[C@@H](C7=CC(=O)OC7)CC[C@]65O)C4)C[C@H]3OC(C)=O)C[C@H]2OC(C)=O)C[C@H]1OC(C)=O (stereo partly shown) [Compound 21],IC50,[1],> 20 µM
β-acetyldigoxin,RORγt-dependent Th17 cell differentiation,[3],selectively inhibited
same,effect on RORγ transcriptional activity,[1],selectively inhibited RORγ with similar IC50 values
"CO[C@H]1C[C@H](O[C@H]2CC[C@@]3(C)[C@H](CC[C@@H]4[C@@H]3CC[C@]3(C)[C@@H](C5=CC(=O)OC5)[C@@H](OC(C)=O)C[C@]43O)C2)O[C@@H](C)[C@@H]1O [oleandrin, Oleandrin]",effect on RORγ transcriptional activity,[1],no significant effect
"C[C@H]1O[C@@H](O[C@H]2CC[C@]3(C=O)[C@H]4CC[C@]5(C)[C@@H](C6=CC(=O)OC6)CC[C@]5(O)[C@@H]4CC[C@]3(O)C2)C[C@H](O)[C@@H]1O[C@@H]1O[C@H](CO)[C@@H](O)[C@H](O)[C@H]1O [erysimoside, Erysimoside]",effect on RORγ transcriptional activity,[1],no significant effect
"C[C@]12C[C@@H](O)[C@H]3[C@@H](CC[C@]4(O)C[C@@H](O)C[C@@H](O)[C@]34CO)[C@@]1(O)CC[C@@H]2C1=CC(=O)OC1 [ouabagenin, Ouabagenin]",effect on RORγ transcriptional activity,[1],no significant effect
C[C@H]1O[C@@H](O[C@H]2[C@@H](O)C[C@H](O[C@H]3[C@@H](O)C[C@H](O[C@H]4CC[C@@]5(C)[C@H](CC[C@@H]6[C@@H]5CC[C@]5(C)[C@@H](C7=CC(=O)OC7)CC[C@]65O)C4)O[C@@H]3C)O[C@@H]2C)C[C@H](O)[C@@H]1O [Digitoxin],RORγt-dependent Th17 cell differentiation,[3],selectively inhibited
same,effect on RORγ transcriptional activity,[1],selectively inhibited RORγ with similar IC50 values
CC1O[C@@H](OC2C(C)O[C@H](OC3C(C)O[C@@H](O[C@H]4CC[C@@]5(C)[C@H](CC[C@@H]6[C@@H]5C[C@@H](O)[C@]5(C)[C@@H](C7CC(=O)OC7Cc7ccccc7O)CC[C@]65O)C4)C[C@H]3O)C[C@H]2O)C[C@@H](O)C1O (stereo partly shown) [Compound 19],Human cell toxicity,[4],xxx (cytotoxicity between 1-10 μM)
same,IC50,[1],1 to 10 µM
"C[C@@H]1O[C@@H](O[C@@H]2C=C3CC[C@@H]4[C@H](CC[C@]5(C)[C@@H](c6ccc(=O)oc6)CC[C@]45O)[C@@]3(C)CC2)[C@H](O)[C@H](O)[C@H]1O [proscillaridin A, Proscillaridin A]",effect on RORγ transcriptional activity,[1],no significant effect
"C[C@@H]1O[C@@H](O[C@H]2C[C@@H](O)[C@]3(CO)[C@H]4[C@H](O)C[C@]5(C)[C@@H](C6=CC(=O)OC6)CC[C@]5(O)[C@@H]4CC[C@]3(O)C2)[C@H](O)[C@H](O)[C@H]1O [ouabain, Ouabain octahydrate]",effect on RORγ transcriptional activity,[1],no significant effect
CC1O[C@@H](OC2C(C)O[C@H](OC3C(C)O[C@@H](O[C@H]4CC[C@@]5(C)[C@H](CC[C@@H]6[C@@H]5C[C@@H](O)[C@]5(C)[C@@H](C7CC(O)OC7Cc7ccccc7O)CC[C@]65O)C4)C[C@H]3O)C[C@H]2O)C[C@@H](O)C1O (stereo partly shown) [Compound 20],IC50,[1],> 20 µM
"C[C@]12CC[C@H](O)C[C@H]1CC[C@@H]1[C@@H]2CC[C@]2(C)[C@@H](C3=CC(=O)OC3)CC[C@]12O [digitoxigenin, Digitoxigenin]",effect on RORγ transcriptional activity,[1],no significant effect
"C[C@H]1O[C@@H](O[C@H]2CC[C@@]3(C)[C@H](CC[C@@H]4[C@@H]3C[C@@H](O)[C@]3(C)[C@@H](C5=CC(=O)OC5)CC[C@]43O)C2)C[C@H](O)[C@@H]1O[C@H]1C[C@H](O)[C@H](O[C@H]2C[C@H](O)[C@H](O[C@@H]3O[C@H](CO)[C@@H](O)[C@H](O)[C@H]3O)[C@@H](C)O2)[C@@H](C)O1 [deslanoside, Deslanoside]",effect on RORγ transcriptional activity,[1],no significant effect
"CC1O[C@@H](OC2C(C)O[C@H](OC3C(C)O[C@@H](O[C@H]4CC[C@@]5(C)[C@H](CC[C@@H]6[C@@H]5C[C@@H](O)[C@]5(C)[C@@H](C7=CC(=O)OC7Cc7ccccc7O)CC[C@]65O)C4)C[C@H]3O)C[C@H]2O)C[C@@H](O)C1O (stereo partly shown) [Compound 18, Digoxin-21-salicylyl]",Human cell toxicity,[4],xxx (cytotoxicity between 1-10 μM)
same,IC50,[1],< 1 µM
